Assay results: patent US4288629A, “1-Hydroxymethyl-11-deoxy-15-hydroxy-prosten-1-ol-derivatives” (American Cyanamid Company, priority 1980, dated 1981)

What was measured:
Assay type in all cases: in vivo
Hist = test: KONZETT DATA, Hist; conditions: spasmogen Hist
5-HT = test: KONZETT DATA, 5-HT; conditions: spasmogen 5-HT
Ach = test: KONZETT DATA, Ach; conditions: spasmogen Ach

CCCCCC(C)(O)/C=C/C1C(O)CC(=O)C1C/C=C\CCCCO (racemic) [dl-1,11,15-trihydroxymethyl-9-oxo-15-methyl-5-cis-13-trans prostadiene]
Hist (ED50 g/kg) (Hist): 0.00075 g/kg
5-HT (ED50 g/kg) (5-HT): 0.0083 g/kg
Ach (ED50 g/kg) (Ach): 0.0043 g/kg
